Data taken from patent US20260027258A1, “Antimicrobial Compositions” (Matoke Holdings Limited, priority 2022, published 2026).
In brackets after ≈: the same amount, converted by molar mass.

How the values were obtained:
[1] = tested on: C. glabrata; assay: Yeast susceptibility testing (EUCAST E.DEF 7.3.2 broth microdilution), C. glabrata; assay type: cell-based; conditions: Nakaseomyces glabratus, C. glabrata isolates (n=8), 24 hours read, MIC = growth inhibited by ≥50% (Amphotericin ≥90%)
Experimental: (§1) AST was used to determine a Minimum Inhibitory Concentration (MIC) value for each antifungal agent on each strain of Candida. Three comparator drugs were also tested. This allowed the effectiveness of RO-101 gel to be compared to common antifungal drugs often used to treat VVC. Antifungal agents and their concentrations were as follows: RO-101 gel (1×, 2×, 10×, 20×: 1×=0.005%, 2×=0.01%, 10×=0.05% and 20×=0.1% Gox) (1 to 500 mg/L), SurgihoneyRO (1 to 500 mg/L), RO-101 gel 0% negative control (0% Gox) (1 to 500 mg/L), Fluconazole (0.125 to 64 mg/L), Itraconazole (0.015 to 8 mg/L) and Amphotericin (0.015 to 8 mg/L). The EUCAST E.DEF 7.3.2 (EUCAST, 2022a) method for yeast susceptibility testing was followed where possible.
(§2) Stock solutions of drugs were prepared with RPMI 1640 medium with 2% glucose. This was prepared by dissolving 20.8 g of RPMI 1640 powder (Sigma, Cat. No. R-6504), 69.1 g of morpholinopropanesulfonic acid (MOPS) (Melford, Cat. No. B2003) and 36 g of glucose (Sigma, Cat. No. G7528) in 800 ml of pharmacy water (Appleton Woods). 10M sodium hydroxide (Sigma, S8045) was added to adjust the pH to 7, and then the RPMI was filter sterilised. De Man, Rogosa & Sharpe (MRS) broth was used to grow the Lactobacillus isolates. MRS broth was prepared by dissolving 51 g of MRS powder (Sigma, 69966) in 1 litre of pharmacy water. 1 ml of Tween 80 (Sigma, P8074) was then added. The mixture was then sterilized by autoclaving at 121° C. for 15 minutes.
(§3) All yeast isolates selected were grown from high vaginal swab samples and were of the Candida genus. Species chosen included C. albicans (n=5), C. glabrata (n=8), C. krusei (n=4), C. tropicalis (n=3) and C. parapsilosis (n=4). These isolates were identified to a species level by testing for the presence of a germ tube, biochemical testing, what temperature the isolate grew in, the colour when streaked on chrome agar, and in some cases the isolates DNA was sequenced.
(§4) The isolates were streaked for single colonies on a SAB plate, using a sterile metal loop. They were then incubated at 35° C. for 48 hours prior to susceptibility testing. […]

[2] = tested on: strains of Candida causing VVC; assay: Yeast susceptibility testing, all Candida species tested (overall comparisons); assay type: cell-based; conditions: versus all of the gel concentrations
Experimental: as §1
as §2, with “The mixture was then sterilized by autoclaving at 121° C. for 15 minutes.” left out

[3] = tested on: C. albicans; assay: Yeast susceptibility testing (EUCAST E.DEF 7.3.2 broth microdilution), C. albicans; assay type: cell-based; conditions: Candida albicans; C. albicans isolates (n=5); 24 hours read; MIC = growth inhibited by ≥50% (Amphotericin ≥90%)
Experimental: as §1
as §2, with “The mixture was then sterilized by autoclaving at 121° C. for 15 minutes.” left out

[4] = at 20° C. and 1 atm; cited from earlier work
[5] = tested on: C. parapsilosis; assay: Yeast susceptibility testing (EUCAST E.DEF 7.3.2 broth microdilution), C. parapsilosis; assay type: cell-based; conditions: Lodderomyces parapsilosis, C. parapsilosis isolates (n=4), 24 hours read, MIC = growth inhibited by ≥50%
Experimental: as §1, §2, §3, §4

[6] = tested on: C. tropicalis; assay: Yeast susceptibility testing (EUCAST E.DEF 7.3.2 broth microdilution), C. tropicalis; assay type: cell-based; conditions: Candida tropicalis, C. tropicalis isolates (n=3), 24 hours read, MIC = growth inhibited by ≥50%
Experimental: as §1
as §2, with “The mixture was then sterilized by autoclaving at 121° C. for 15 minutes.” left out

[7] = tested on: C. krusei; assay: Yeast susceptibility testing (EUCAST E.DEF 7.3.2 broth microdilution), C. krusei; assay type: cell-based; conditions: Pichia kudriavzevii, C. krusei isolates (n=4), 24 hours read, MIC = growth inhibited by ≥50%
Experimental: as §1, §2, §3, §4

## C[C@@H]1[C@H](O)[C@@H](C)/C=C/C=C/C=C/C=C/C=C/C=C/C=C/[C@H](O[C@@H]2O[C@H](C)[C@@H](O)[C@H](N)[C@@H]2O)C[C@@H]2O[C@](O)(C[C@@H](O)C[C@@H](O)[C@H](O)CC[C@@H](O)C[C@@H](O)CC(=O)O[C@H]1C)C[C@H](O)[C@H]2C(=O)O [Amphotericin]
[1]
  MIC50: 0.0625 µg/mL (≈ 0.0676 µM)
  MIC90: 0.125 µg/mL (≈ 0.135 µM)
[1]; read-out: MIC geometric mean
  MIC: 0.081 µg/mL (≈ 0.0877 µM)
[2]
  MIC50, MIC90 and geometric means in comparison with RO-101 Gel: lower MIC50, MIC90 and geometric means than all of the gel concentrations
[3]
  MIC50: 0.0625 µg/mL (≈ 0.0676 µM)
  MIC90: 0.0625 µg/mL (≈ 0.0676 µM)

## O=C(CO)[C@@H](O)[C@H](O)[C@H](O)CO [Fructose]
[4]
  solubility: about 375 g/100 g water

## CCC(C)n1ncn(-c2ccc(N3CCN(c4ccc(OCC5COC(Cn6cncn6)(c6ccc(Cl)cc6Cl)O5)cc4)CC3)cc2)c1=O (stereo not drawn) [Itraconazole]
[5]
  MIC50: 0.015 µg/mL (≈ 0.0213 µM)
  MIC90: 0.125 µg/mL (≈ 0.177 µM)
[5]; read-out: MIC geometric mean
  MIC: 0.025 µg/mL (≈ 0.0354 µM)
[6]
  MIC90: 0.0625 µg/mL (≈ 0.0886 µM)
[6]; read-out: MIC geometric mean
  MIC: 0.031 µg/mL (≈ 0.0439 µM)
[7]
  MIC50: 0.125 µg/mL (≈ 0.177 µM)
  MIC90: 0.25 µg/mL (≈ 0.354 µM)
[7]; read-out: MIC geometric mean
  MIC: 0.177 µg/mL (≈ 0.251 µM)
